The numbers were not newly measured in publication PMC10329973 (Clinical pharmacology in drug development, 2023), which cites them from elsewhere.

One data set deals with blood pressure. The conditions noted are these: cited from earlier work.
For a further data set, the system named is depressed individuals. The conditions noted are these: study in depressed individuals; cited from earlier work.

Turning to `Cc1ccc(COC(=O)N2CC[C@H](CNc3ncccn3)[C@H](F)C2)cc1` [MK-0657], the off-target cardiovascular effects entry in the data set on blood pressure is listed as “increased blood pressure”.

With `C[C@@H]([C@@H](O)c1ccc(O)cc1)N1CCC(O)(c2ccccc2)CC1` [CP-101,606, traxoprodil], the dissociative effects entry in the data set on depressed individuals is “ketamine-like dissociative effects were noted”.
